TGI data for 14 compounds are collected here from PubChem BioAssay (NCI).

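Tested at 5 concentrations; 48 h exposure; 96-well plates; endpoints linearly interpolated, else capped at highest concentration. TGI denotes the concentration required for complete inhibition of growth.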

Among the test systems are UACC-62 melanoma; HOP-92 NSCLC; OVCAR-5 ovarian; COLO 205 colon; RXF 393 renal; RPMI-8226 leukemia; OVCAR-8 ovarian; BT-549 breast; 786-0 renal; SF-268 CNS.
Experiment in all cases: NCI anticancer screen, dose series, 48 h

Regarding `COc1cc(/C=C2\C(=O)N(c3cccc([N+](=O)[O-])c3)C(c3ccccc3)S2(=O)=O)cc(OC)c1OC` (stereo not drawn), the TGI in the experiment with UACC-62 melanoma, in the experiment with HOP-92 NSCLC, in the experiment with OVCAR-5 ovarian, with COLO 205 colon, in the experiment on RXF 393 renal and with RPMI-8226 leukemia was more than 100 µM throughout. The TGI in the experiment on OVCAR-8 ovarian, in the experiment on BT-549 breast and in the experiment with 786-0 renal was more than 100 µM throughout.
Take `C=CCC1(C#N)C(=S)NC2=C(C(=O)CC(C)(C)C2)C1c1ccccc1` (stereo not drawn): the TGI was 90.2 µM in the experiment on HOP-92 NSCLC; more than 100 µM in the experiment with OVCAR-5 ovarian; more than 100 µM in the experiment with COLO 205 colon; more than 100 µM with RXF 393 renal; more than 100 µM with RPMI-8226 leukemia; 53.1 µM in the experiment on OVCAR-8 ovarian. The TGI in the experiment with BT-549 breast and in the experiment on 786-0 renal was more than 100 µM each time.
In the case of `O=c1[nH]c2nc3ccccc3c(=O)n2/c1=C/c1ccc(Cl)cc1`, the TGI in the experiment on UACC-62 melanoma, in the experiment with HOP-92 NSCLC, with OVCAR-5 ovarian, in the experiment on SF-268 CNS, in the experiment on COLO 205 colon and with RXF 393 renal was more than 100 µM each time. Further, the TGI with RPMI-8226 leukemia was more than 100 µM; with OVCAR-8 ovarian it was 58.6 µM; in the experiment on BT-549 breast, 46.2 µM; in the experiment with 786-0 renal, more than 100 µM.
In the case of `CC(C)(C)c1ccc(OCCOc2ccc(C(C)(C)C)cc2N)c(N)c1`, the TGI with UACC-62 melanoma, in the experiment on HOP-92 NSCLC, with OVCAR-5 ovarian, with SF-268 CNS, in the experiment on COLO 205 colon and in the experiment on RXF 393 renal was more than 100 µM throughout. For the same compound, the TGI in the experiment with RPMI-8226 leukemia, in the experiment with OVCAR-8 ovarian, in the experiment with BT-549 breast and in the experiment on 786-0 renal was more than 100 µM throughout.
Take `COC(=O)C1(NC(=O)C(CC(=O)OCc2ccccc2)NC(=O)OCc2ccccc2)CCCCCC1` (stereo not drawn): the TGI was 34.3 µM in the experiment on UACC-62 melanoma; more than 100 µM in the experiment on HOP-92 NSCLC; more than 100 µM with OVCAR-5 ovarian; more than 100 µM with SF-268 CNS; 47.3 µM with COLO 205 colon; more than 100 µM with RXF 393 renal. In addition, the TGI with RPMI-8226 leukemia is 21.9 µM; in the experiment on OVCAR-8 ovarian, 90.5 µM; in the experiment on BT-549 breast, 61.5 µM; with 786-0 renal, more than 100 µM.
For `CC(C)(C)c1ccccc1N1C(=O)c2ccc3c4c(ccc(c24)C1=O)N(c1ccccc1C(C)(C)C)C3=O`, the TGI with UACC-62 melanoma, in the experiment with HOP-92 NSCLC, with OVCAR-5 ovarian, in the experiment with SF-268 CNS, with COLO 205 colon and in the experiment with RXF 393 renal was more than 100 µM in each case. Further, the TGI in the experiment on RPMI-8226 leukemia, in the experiment on OVCAR-8 ovarian, in the experiment on BT-549 breast and in the experiment with 786-0 renal was more than 100 µM throughout.
Consider `COC(=O)Cc1cc(O)c2c(c1O)C(=O)c1ccccc1C2=O`, for which the TGI in the experiment with UACC-62 melanoma was more than 100 µM; in the experiment on HOP-92 NSCLC, 56 µM; in the experiment on OVCAR-5 ovarian it was more than 100 µM; in the experiment on SF-268 CNS, more than 100 µM; in the experiment with COLO 205 colon, more than 100 µM; with RXF 393 renal, 63.7 µM. Further, the TGI is more than 100 µM in the experiment with RPMI-8226 leukemia, more than 100 µM in the experiment with OVCAR-8 ovarian, more than 100 µM in the experiment on BT-549 breast and more than 77.1 µM in the experiment on 786-0 renal.
With `C[C@@H](NC(C#N)c1ccco1)c1ccccc1` (stereo partly drawn), the TGI in the experiment on UACC-62 melanoma, with HOP-92 NSCLC, with OVCAR-5 ovarian, in the experiment on SF-268 CNS, in the experiment on RXF 393 renal and in the experiment on RPMI-8226 leukemia was more than 100 µM each time. In addition, the TGI in the experiment with OVCAR-8 ovarian, with BT-549 breast and in the experiment with 786-0 renal was more than 100 µM in each case.
`COc1ccc2c(c1)C(=O)CC1c3cnccc3C(=O)N21` (stereo not drawn): the TGI with UACC-62 melanoma, with HOP-92 NSCLC, with OVCAR-5 ovarian, in the experiment with SF-268 CNS, in the experiment with COLO 205 colon and in the experiment on RXF 393 renal was more than 100 µM throughout. Also, the TGI in the experiment with RPMI-8226 leukemia, in the experiment on OVCAR-8 ovarian, in the experiment on BT-549 breast and in the experiment on 786-0 renal was more than 100 µM throughout.
For `CC(C)=CCN1c2ccccc2NC(=O)CC1C` (stereo not drawn), the TGI in the experiment on HOP-92 NSCLC, in the experiment on OVCAR-5 ovarian, in the experiment with SF-268 CNS, with COLO 205 colon, with RXF 393 renal and in the experiment with RPMI-8226 leukemia was more than 100 µM in each case. Also, the TGI in the experiment with OVCAR-8 ovarian is more than 100 µM; in the experiment with BT-549 breast, 55 µM; in the experiment on 786-0 renal, more than 100 µM.
As to `CCn1nc(C)c2c1C(=O)NCC(=O)N2`, the TGI in the experiment on UACC-62 melanoma, in the experiment with HOP-92 NSCLC, with OVCAR-5 ovarian, with SF-268 CNS, in the experiment on COLO 205 colon and in the experiment on RXF 393 renal was more than 100 µM each time. In addition, the TGI in the experiment with OVCAR-8 ovarian and in the experiment on BT-549 breast was more than 100 µM in each case.
On to `CCC/C(Cl)=N\OC(=O)Nc1ccc(F)cc1`, for which the TGI with UACC-62 melanoma was 27.5 µM; in the experiment on HOP-92 NSCLC, 16.5 µM; in the experiment with OVCAR-5 ovarian it was 36 µM; in the experiment on SF-268 CNS it was more than 65 µM; in the experiment with COLO 205 colon it was 8.97 µM; with RXF 393 renal, 33.1 µM. The TGI is 15.6 µM in the experiment on RPMI-8226 leukemia, more than 60.9 µM in the experiment on OVCAR-8 ovarian, 28.4 µM in the experiment on BT-549 breast and 17.5 µM in the experiment with 786-0 renal.
Consider `CN(C)CCNc1ccc2c(=O)n(CCN(C)C)c(=O)n3c4ccc(O)cc4c(=O)c1c23`, for which the TGI was found to be 0.147 µM with UACC-62 melanoma; 0.0941 µM in the experiment on HOP-92 NSCLC; 2.34 µM in the experiment on OVCAR-5 ovarian; 0.416 µM in the experiment with SF-268 CNS; 0.099 µM with COLO 205 colon; 0.224 µM in the experiment with RXF 393 renal. Also, the TGI was found to be 0.417 µM in the experiment on RPMI-8226 leukemia, 0.358 µM with OVCAR-8 ovarian, 2.35 µM in the experiment with BT-549 breast and 0.156 µM in the experiment with 786-0 renal.
In the case of `c1ccc(/C(=N/Nc2nc3ccccc3s2)C2CCCCC2)nc1`, the TGI came to 31.3 µM in the experiment with UACC-62 melanoma; 22.1 µM in the experiment with HOP-92 NSCLC; 14.4 µM with OVCAR-5 ovarian; 25 µM in the experiment with SF-268 CNS; 13.1 µM in the experiment on COLO 205 colon; 24.8 µM in the experiment with RXF 393 renal. Also, the TGI was found to be 21.9 µM with RPMI-8226 leukemia, 14.3 µM with OVCAR-8 ovarian, 35.1 µM with BT-549 breast and 21.9 µM in the experiment on 786-0 renal.
